# In PubChem BioAssay AID2748 (The Scripps Research Institute Molecular Screening Center, 2010):
# Molecular target: Heat shock protein HSP 90-alpha (Homo sapiens) (UniProt P07900)
# Experiment: inhibition of human Hsp90, late-stage follow-up, biochemical, luminescence (AID 2748)
# Conditions: Hsp90 biochemical assay, luminescence read-out
row,SMILES,IC50 [nM]
1,CCc1ccc(OCc2ccc(C(=O)OC)o2)cc1,1030
2,CCOC(=O)c1csc(NC(=O)c2cc3ccccc3o2)n1,878
3,COc1cc(C=NNc2ccc(Cl)c(C(=O)O)c2)ccc1OC(=O)c1ccc(F)cc1,1820
4,CC(=O)Nc1ccccc1OCC(=O)c1cc(C)n(Cc2cccs2)c1C,100

# Other lines, results leading:
row,IC50 [nM],SMILES
1,457,COc1ccccc1NC(=O)c1coc(=O)c(Br)c1
2,871,Cc1cc(NO)nc(-c2ccc(Br)cc2)n1
3,308,CCOC(=O)C1=C(c2ccc(OC)cc2)C(=O)c2ccccc2C1=O
4,< 3,Cc1c(-c2nc(-c3ccc(C(C)(C)C)cc3)no2)n(C)oc1=O
5,1600,Cc1c(-c2nc(-c3ccc(C(F)(F)F)cc3)no2)n(C)oc1=O
